This is an account of results in publication PMC8173716 (Nature nanotechnology, 2020).

Test [1] relates to NE. Kind of test: vABN breath test in PA01-inoculated mice treated with sivelestat. Format: in vivo, mouse. The note with it: sivelestat before vABN delivery.
Test [2] deals with NE. The note with it: cited from earlier work.
Test [3] has as its system mouse NE. Kind of test: Inhibition of mouse NE cleavage of vABNs by sivelestat, in vitro. Format: biochemical.
Test [4] concerns NE. Kind of test: vABN breath test in LPS-challenged mice given prophylactic A1AT. The test is classed as in vivo, mouse (female C57BL/6N).
Test [5] deals with NE. The experiment in a line: vABN breath test in WT and SERPINA1a-e knockout mice. Format: in vivo, mouse (male C57BL/6 WT and Serpina1a-e knockout). Particulars: 1 mg prophylactic A1AT, LPS.
For test [6], the system named is NE in mouse lung lysates. Particulars: cited from earlier work.
Test [7] relates to human NE. Particulars: cited from earlier work.

For `CC(C)(C)C(=O)Oc1ccc(S(=O)(=O)Nc2ccccc2C(=O)NCC(=O)O)cc1` [sivelestat], the “attenuation of breath signal in infected mice” value in test [1] is on record as ~ 75%. In addition, the “specific inhibition of NE” value in test [2] is “specifically inhibits NE”. In test [3], the “inhibition of mouse NE cleavage of vABNs” value is “mouse NE can be inhibited using sivelestat to prevent cleavage of vABNs”.
“A1AT: Alpha-1 antitrypsin, a protein inhibitor of NE”: the “breath signal after LPS challenge” value is “significantly reduce breath signal” in test [4] (1-mg A1AT 1–2 days before LPS challenge, vs untreated LPS-challenged controls) and “absence of significant difference” in test [4] (1-mg A1AT 3 days before LPS challenge (D-3), vs untreated controls). Also, the “AUROC, untreated vs A1AT-treated” value in test [4] (A1AT 1 day before LPS challenge (D-1)) turned out to be 0.97; in test [4] (A1AT 2 days before LPS challenge (D-2)), 0.91; in test [4] (A1AT 3 days before LPS challenge (D-3)), 0.50. Also, the “correlation between breath signal and A1AT in the lungs (Pearson's r)” value in test [4] (p = 0.0293) was −0.6018. In test [4] (single 1 mg AAT dose), the “protection by day 3” value is given as “No protection is observed by day 3”. The “neutrophil recruitment / anti-inflammatory effect” value in test [2] is listed as “suppressed neutrophil recruitment, a well-documented anti-inflammatory effect of A1AT”. Further, the “breath signal in A1AT-treated knockout mice vs untreated knockout mice” value in test [5] (p < 0.05, n = 7–8) is given as “significantly lower than that in untreated knockout mice”. In test [5] (p = 0.568), the “AUROC, A1AT-treated knockout vs WT with acute inflammation” value turned out to be 0.60.
Consider Ac-Nle(O-Bzl)-Met(O)2-Oic-Abu-ACC, for which the “binding in mouse lung lysates” value in test [6] is listed as “bind specifically to NE in mouse lung lysates”. In addition, in test [7], the “selectivity for human NE” value is reported as “selectivity for human NE”. In test [7] (fluorogenic ACC substrate), the “catalytic efficiency (kcat/Km)” value is 4.79e+07 M⁻¹ s⁻¹.
